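Method: 48-hour compound exposure of cells in 96-well plates, five concentrations, linear interpolation of endpoints. At the GI50, growth is halved.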 Active and inactive are the calls of the source. Cut-off read from the data, not from the text of the source: active = GI50 up to about 1.1 µM and inactive = higher.
Columns and labels:
Assay in all cases: growth of human tumour cells (NCI), 48 h
RPMI-8226 = test system: RPMI-8226
TK-10 = test system: TK-10
HL-60 = test system: HL-60
CCRF-CEM = test system: CCRF-CEM
HT-29 = test system: HT-29
BT-549 = test system: BT-549
EKVX = test system: EKVX
HOP-92 = test system: HOP-92
SNB-75 = test system: SNB-75
NCI-H522 = test system: NCI-H522
COLO 205 = test system: COLO 205
NCI-H226 = test system: NCI-H226
UO-31 = test system: UO-31
NCI-H460 = test system: NCI-H460
OVCAR-8 = test system: OVCAR-8
MOLT-4 = test system: MOLT-4
LOX IMVI = test system: LOX IMVI
OVCAR-4 = test system: OVCAR-4
NCI-H23 = test system: NCI-H23
Malme-3M = test system: Malme-3M

Row | SMILES | GI50 (RPMI-8226) | GI50 (TK-10) | GI50 (HL-60) | GI50 (CCRF-CEM) | GI50 (HT-29) | GI50 (BT-549) | GI50 (EKVX) | GI50 (HOP-92) | GI50 (SNB-75) | GI50 (NCI-H522) | GI50 (COLO 205) | GI50 (NCI-H226) | GI50 (UO-31) | GI50 (NCI-H460) | GI50 (OVCAR-8) | GI50 (MOLT-4) | GI50 (LOX IMVI) | GI50 (OVCAR-4) | GI50 (NCI-H23) | GI50 (Malme-3M)
1 | CC(C)=C1C(=O)C[C@]2(C)C[C@H]3O[C@]3(C)CC[C@@H]3O[C@@]3(C)CC[C@@H]12 | > 50 µM (inactive) | > 50 µM (inactive) | > 50 µM (inactive) | > 50 µM (inactive) | > 50 µM (inactive) | > 50 µM (inactive) | > 50 µM (inactive) | > 50 µM (inactive) | > 50 µM (inactive) | 34 µM (inactive) | > 50 µM (inactive) | > 50 µM (inactive) | 30.3 µM (inactive) | > 50 µM (inactive) | > 50 µM (inactive) | > 50 µM (inactive) | 17.5 µM (inactive) | > 50 µM (inactive) | > 50 µM (inactive) | 
2 | C=C1CC(OC(C)=O)/C=C(/C)CCC(C(C)(C)O)CC1O (centres undefined) |  | > 100 µM (inactive) | > 100 µM (inactive) | > 100 µM (inactive) | > 100 µM (inactive) | > 100 µM (inactive) | > 100 µM (inactive) | > 100 µM (inactive) |  | > 100 µM (inactive) | > 100 µM (inactive) | > 100 µM (inactive) | > 100 µM (inactive) | > 100 µM (inactive) | > 100 µM (inactive) | > 100 µM (inactive) | > 100 µM (inactive) | > 100 µM (inactive) | > 100 µM (inactive) | > 100 µM (inactive)
3 | COn1cc(C=O)c2ccccc21 | > 68.1 µM (inactive) | > 54.3 µM (inactive) | 0.551 µM (active) |  | > 56.6 µM (inactive) | > 100 µM (inactive) | 23.7 µM (inactive) | > 68.9 µM (inactive) | 33.7 µM (inactive) | 38.6 µM (inactive) | > 100 µM (inactive) | > 20.2 µM (inactive) | 61.2 µM (inactive) | 35.1 µM (inactive) | > 93.8 µM (inactive) | 33.2 µM (inactive) | > 65.2 µM (inactive) | > 50.5 µM (inactive) | > 100 µM (inactive) | > 93.8 µM (inactive)
4 | COc1ccc(CNc2nc3ccccc3nc2C(=O)O)cc1 | 21.7 µM (inactive) | > 100 µM (inactive) | 95.7 µM (inactive) | 83.4 µM (inactive) | > 100 µM (inactive) | > 100 µM (inactive) | 78.2 µM (inactive) | 70.5 µM (inactive) | 93.8 µM (inactive) | 72.9 µM (inactive) | 71.6 µM (inactive) | > 100 µM (inactive) | 39 µM (inactive) | 55.5 µM (inactive) | > 100 µM (inactive) | > 10 µM (inactive) | 45.4 µM (inactive) |  | > 100 µM (inactive) | 
5 | NCC(=O)Nc1ccc(S(=O)(=O)O)c2cc(S(=O)(=O)O)cc(S(=O)(=O)O)c12 | > 100 µM (inactive) | > 100 µM (inactive) | > 100 µM (inactive) | > 100 µM (inactive) | > 100 µM (inactive) | > 100 µM (inactive) | > 100 µM (inactive) | > 100 µM (inactive) | > 100 µM (inactive) | > 100 µM (inactive) | > 100 µM (inactive) | > 100 µM (inactive) | > 100 µM (inactive) |  | > 100 µM (inactive) | > 100 µM (inactive) | > 100 µM (inactive) | > 100 µM (inactive) | > 100 µM (inactive) | > 100 µM (inactive)
6 | CC(=O)Oc1ccc2c3c1O[C@H]1[C@H](O)CC[C@@]4(O)[C@@H](C2)N(C)CC[C@]314 | > 100 µM (inactive) | > 100 µM (inactive) | > 100 µM (inactive) |  | > 100 µM (inactive) | > 100 µM (inactive) | > 100 µM (inactive) | > 100 µM (inactive) |  | > 100 µM (inactive) | > 100 µM (inactive) | > 100 µM (inactive) | > 100 µM (inactive) |  | > 100 µM (inactive) | > 100 µM (inactive) | > 100 µM (inactive) | > 100 µM (inactive) | > 100 µM (inactive) | > 100 µM (inactive)
7 | CN(C(=O)[C@H](NC(=O)OCc1ccccc1)c1ccccc1)C1CCCCC1N1CCCC1 (some centres undefined) | 36.3 µM (inactive) | 74.6 µM (inactive) |  | 38.8 µM (inactive) | 38.1 µM (inactive) | > 100 µM (inactive) | > 100 µM (inactive) | 31.5 µM (inactive) | 97.3 µM (inactive) | 43.9 µM (inactive) | 87.9 µM (inactive) | 0.55 µM (active) | 48.5 µM (inactive) | 40.6 µM (inactive) | > 100 µM (inactive) | 23.7 µM (inactive) | 77.6 µM (inactive) | 51.4 µM (inactive) | > 100 µM (inactive) | 48.4 µM (inactive)

Reference: ChEMBL document CHEMBL1201862, “PubChem BioAssay data set” (2004)
